# Source: patent publication US11981953B2, “Method to screen compounds for antifungal activity and pharmaceutical compositions and methods to treat fungal diseases by inhibiting spore germination” (WISCONSIN ALUMNI RESEARCH FOUNDATION, priority 2018, dated 2024)
# Counter-ions that a name gives are not always drawn. Like-named read-outs stand apart in the source and are kept apart here.
# Key:
# [1] = system: Cryptococcus neoformans yeast replication; format: cell-based; details: signal relative to negative control
# From the text: (§1) To identify inhibitors of Cryptococcus neoformans spore germination, a high throughput screen was developed that utilizes a nanoluciferase construct to monitor whether spores germinate in the presence of inhibitor. Briefly a protein luciferase construct was created resulting in a low luciferase signal for non-germinated spores and a high signal from germinated and replicating cells. The screen was coupled with OD600 readings to monitor the ability of compounds to inhibit yeast replication. The examples focused on FDA-approved drugs, as these drugs have the potential of being repurposed into antifungal therapeutics. To determine whether any FDA-approved drugs were able to inhibit Cryptococcus neoformans spore germination and yeast replication, the aforementioned high throughput screen was performed on the L1300 Selleck FDA-Approved Drug Library containing an array of 1108 compounds. This library of compounds is available commercially from Selleck Chemicals, 14408 W Sylvanfield Drive, Houston, Tex. 77014, USA.
# (§2) The screening was successful at identifying known antifungal drugs as inhibitors of yeast replication as indicated by an OD600 signal of less than 75% of the negative control (Table 2). For the purpose of these examples, antifungal drugs were defined as any FDA-approved drug used in the treatment of fungal infections. Of these 23 known antifungal drugs, only six (6) were identified as inhibitors of spore germination, indicated by a luciferase signal of less than 30% of the negative control.
# [2] = system: Aspergillus Fumigatus (AF293); experiment: Aspergillus fumigatus MIC on conidia; format: cell-based; details: for MIC: Aspergillus fumigatus; for Ability to inhibit Aspergillus fumigatus: testing performed on conidia
# Procedure: Conidia at a final concentration of 2×10^4 cells were incubated in RPMI, 0.33 M MOPS, and 2% glucose at pH 7 at varying concentrations of inhibitors, with a final volume of 200 μL.
# [3] = system: Cryptococcus neoformans (JEC21); experiment: MIC/MFC experiments (EUCAST based), JEC21; format: cell-based; details: 48 h; for MFC: Cryptococcus neoformans
# Procedure: (§3) All minimum inhibitory concentration (MIC) experiments were based on EUCAST methodology. […] After 6-hour incubation, yeast cells were washed in 1×PBS and quantified using a hemocytometer. […] Cryptococcus neoformans cells were incubated for 2 days at 30° C. while Candida albicans strains were incubated for 2 days at 35° C. OD600 readings were used to assess the MIC values for each drug. To determine minimum fungicidal concentrations (MFC) values, 3 μL per well were plated on YPD and allowed to grow for 2 days.
# [4] = system: Cryptococcus neoformans (H99); experiment: MIC/MFC experiments (EUCAST based), H99; format: cell-based; details: 48 h; for MFC: Cryptococcus neoformans
# Procedure: as §3
# [5] = system: Cryptococcus neoformans spores (JEC20 x JEC21); experiment: Quantitative germination assay (microfluidic devices, cell size and shape); format: cell-based; details: for Inhibition of spore germination: 16 hours; for Germicidal: plated on YPD after the 16-hour experiment; for Inhibition of spore germination, antifungal drugs: concentration not given, bifonazole and econazole nitrate tested outside the microfluidic device, imaged at 0 and 16 hours; for Spore escape from inhibition (words): yeast population increase = escape
# Procedure: All germination assays are based on Barkal et al., 2016. Briefly, microfluidic devices were loaded with 1×10^5 spores, and at 0 hours, SD media with drug of interest, were added to the sample. Spores were allowed to germinated at 30° C. in a humidified chamber and cells were monitored every two (2) hours for 16 hours. Each assay was performed in two (2) individual wells with three (3) field of views acquired from each well. All images were analyzed as previously described based on cell shape and size. Population ratio of spores, intermediate, and yeast cells were determined. Error bars in plots are based on variation between all fields of view acquired. […] After the 16-hour experiment, samples were plated on YPD and allowed to grow at 30° C. to determine if drugs were completely germicidal or not based on lack of growth. If assays were unable to be performed in microfluidic devices, the […] spores were incubated in identical conditions outside of PDMS devices and only loaded into devices for image acquisition.
# [6] = system: Candida albicans (SC5314); experiment: MIC/MFC experiments (EUCAST based), Candida albicans; format: cell-based; details: SC5314, 48 h
# Procedure: as §3
# [7] = system: Cryptococcus neoformans spore germination; experiment: High throughput nanoluciferase screen of spore germination (L1300 Selleck FDA-Approved Drug Library); format: cell-based; details: signal relative to negative control
# From the text: as §1, §2
# [8] = system: JEC20-GFPxJEC21-GFP spores in mouse lung; experiment: In vivo germination (cells recovered from mouse lungs 8 hours post infection); design: species or system Cryptococcus neoformans; details: prophylactic 4 mg/kg/day for three days; cells recovered 8 hours post infection
# Procedure: Female mice, 8- to 10-week-old C57BL/6J (Jackson Laboratory) female mice (3 mice per group) were used. Mice were dosed with either 4mg/kg/day or 1×PBS (50 μL) for three (3) consecutive days. Mice were intranasally infected with 2×10^6 JEC20-GFPxJEC21-GFP spores, strains described in Walsh et al., 2018. After 8 hours post-infection, mice were sacked and lavaged with 0.05% TirtonX in 1×PBS. Lavage suspension underwent a series of treatments and washes, in order: red blood cell lysis (ACK lysing buffer, 2 mL, 5 minutes), formaldehyde fixation (4%, 500 μL, 30 minutes) and calcofluor white staining (25 μg/mL, 20 μL for 1 minute). Cells (50-100 per mouse) were imaged, and identified as Cryptococcus neoformans cells based on green fluorescent signal or cyan staining from calcofluor staining. Cells surface area and aspect ratio were measured in ImageJ and cells were classified as spores, intermediates, or yeast based on size and shapes parameters used in the quantitative germination assay.
# In vivo spore germination has never been characterized mainly due to technical hurdles. Using a novel assay, Cryptococcus neoformans cells were recovered from prophylactically treated, spore-infected mouse lungs 8 hours post infection. […] Based on size and shape of the cells, the level of in vivo spore germination was quantified.
# [9] = system: JEC20×JEC21 yeast or spores in mouse lung; experiment: Fungal burden animal studies (mouse lung colony-forming units); format: in vivo, Cryptococcus neoformans; details: for Lung fungal burden (colony-forming units) versus PBS-treated mice: 4 mg/kg/day intranasal for three days from 1-day post-infection, lungs day 4
# Procedure: All yeast cells were cultured overnight in YPD, washed and diluted to 5×10^6 cells. For JEC20 and JEC21, 2.5×10^6 cells of each were combined. Spores were cultured as previously described and diluted to 2×10^6 cells. All experiments were performed on 8- to 10-week old C57BL/6J (Jackson Laboratory, Bar Harbor, Me., USA) female mice (5 mice per group). All mice were infected intranasally with a total of 50 μL. All dosing was performed with 4 mg/kg/day or 1×PBS for three (3) days either prior to infection or 1-day post-infection. Mice were sacked day-4 post-infection and lungs were collected, processed, and fungal burden was assessed.
# Pentamidine is a successful inhibitor of Cryptococcus neoformans yeast replication in vitro. For repurposing potential, it is important to determine drug efficacy in vivo. For this purpose, the ability of pentamidine to lower the fungal burden in mouse lungs infected by both spores and yeast was determined. One-day post-infection intranasal dosing was begun at 4 mg/kg/day and the mice were treated for three consecutive days. On the fourth day post-infection, lungs were collected and fungal burden was determined. […] See FIG. 8A and FIG. 8B, respectively.
# Pentamidine is a successful inhibitor of spore germination in vitro. It is important, though, to determine drug efficacy in vivo. Therefore, the ability of pentamidine to inhibit germination of spores in mouse lungs was determined. […], mice were infected with JEC20×JEC21 spores and 4-days post infection, mouse lungs were collected and lung fungal burden was determined.
# [10] = Table 3, other FDA-approved drugs
# [11] = Table 5, conidia, lowest concentration with complete absence of germ tubes or hyphae, read-out: MIC
# [12] = Table 5, yeast, 2 days at 30° C., OD600, read-out: MIC
# [13] = Table 5, plated on YPD, 2 days, read-out: MFC
# [14] = Table 5, 2 days at 35° C., OD600, read-out: MIC
# [15] = Table 2, antifungal drugs, less than 75% = inhibitor of yeast replication
# [16] = Table 4, conidia, lowest concentration with complete absence of germ tubes or hyphae, read-out: MIC
# [17] = Table 4, yeast, 2 days at 30° C., OD600, read-out: MIC
# [18] = Table 4, plated on YPD, 2 days, read-out: MFC
# [19] = Table 4, 2 days at 35° C., OD600, read-out: MIC
# [20] = Table 2, antifungal drugs, less than 30% = inhibitor of germination
SMILES,"Replication Percent OD600 [1, 10] [%]","MIC [2, 11] [µg/mL]",Ability to inhibit Aspergillus fumigatus [2],"MIC [3, 12] [µg/mL]","MFC [3, 13] [µg/mL]","MIC [4, 12] [µg/mL]","MFC [4, 13] [µg/mL]",Inhibition of spore germination ([5]; 25 μg/mL),Germicidal ([5]; 25 μg/mL),"MIC [6, 14] [µg/mL]","MFC [6, 13] [µg/mL]","Germination Percent Luciferase Signal [7, 10] [%]",also measured
CCCCC(CC)CNC(=N)NC(=N)NCCCCCCNC(=N)NC(=N)NCC(CC)CCCC (stereo not shown) [Alexidine HCl],29.6,< 0.78,extremely potent,< 0.78,< 0.78,< 0.78,< 0.78,completely inhibit spore germination,fully germicidal,< 0.78,< 0.78,4.6,
c1ccc(-c2ccc(C(c3ccccc3)n3ccnc3)cc2)cc1 (stereo not shown) [Bifonazole],,,unable to inhibit,,,,,,,,,,"Replication Percent OD600 [1, 15]: 33.4%; MIC [2, 16]: > 100 µg/mL; MIC [3, 17]: 6.25 µg/mL; MFC [3, 18]: 6.25 µg/mL; MIC [4, 17]: 6.25 µg/mL; MFC [4, 18]: > 100 µg/mL; Inhibition of spore germination, antifungal drugs [5]: able to inhibit spore germination effectively; Spore escape from inhibition (words) [5]: spore escape apparent; MIC [6, 19]: > 100 µg/mL; MFC [6, 18]: > 100 µg/mL; Germination Percent Luciferase Signal [7, 20]: 13.6%"
CCN(CC)C(=S)SSC(=S)N(CC)CC [Disulfiram],65.6,,,,,,,,,,,22.7,MIC [2]: 25 µg/mL; MIC [3]: 3.13 µg/mL; MFC [3]: 3.13 µg/mL; MIC [4]: 6.25 µg/mL; MFC [4]: 6.25 µg/mL; Stall in germination overall ([5]; 25 μg/mL): ~2 h; MFC [6]: 12.5 µg/mL; MIC [6]: 6.25 µg/mL
Clc1ccc(COC(Cn2ccnc2)c2ccc(Cl)cc2Cl)cc1 (stereo not shown) [Econazole nitrate],,,able to inhibit its growth,,,,,,,,,,"Replication Percent OD600 [1, 15]: 33.1%; MIC [2, 16]: 3.13 µg/mL; MIC [3, 17]: < 0.78 µg/mL; MFC [3, 18]: 6.25 µg/mL; MIC [4, 17]: < 0.78 µg/mL; MFC [4, 18]: 6.25 µg/mL; Inhibition of spore germination, antifungal drugs [5]: able to inhibit spore germination effectively; MIC [6, 19]: 6.25 µg/mL; MFC [6, 18]: 12.5 µg/mL; Germination Percent Luciferase Signal [7, 20]: 16.1%"
O=C(Nc1ccc([N+](=O)[O-])cc1Cl)c1cc(Cl)ccc1O [Niclosamide],43.4,> 100,,< 0.78,1.56,1.56,> 100,completely inhibit germination,not fully germicidal,> 100,> 100,7.8,
CCCCCCCCOc1ccccc1C(=O)Nc1ccc(C(=O)OCC[N+](C)(CC)CC)cc1 [Otilonium bromide],29.0,6.25,able to inhibit A. fumigatus,3.13,3.13,3.13,3.13,completely inhibit spore germination,fully germicidal,3.13,3.13,6.9,
N=C(N)c1ccc(OCCCCCOc2ccc(C(=N)N)cc2)cc1 [Pentamidine],,,unable to inhibit,,,,,,,,,,"Germicidal activity ([5]; 50 μg/mL): showed germicidal activity; Spore germination over a range of concentrations ([5]; as concentrations increased): spore germination became slower; Germicidal activity ([5]; lower concentration): not germicidal; Spore escape from inhibition (words) ([5]; listed as pentamidine): no individual spores were able to escape inhibition; Level of in vivo spore germination (spore, intermediate, yeast percent) [8]: higher spore percent and a lower yeast percent; Lung fungal burden after prophylaxis versus 1×PBS ([9]; 4 mg/kg/day for three consecutive days prior to infection with JEC20×JEC21 spores, lungs 4-days post infection, FIG. 9, p<0.01): successful in decreasing spore-mediated lung burden; Lung fungal burden (colony-forming units) versus PBS-treated mice ([9]; spore-infected C57BL/6J mice, FIG. 8B, p<0.01): significantly lower fungal burdens in the lung; Lung fungal burden (colony-forming units) versus PBS-treated mice ([9]; yeast-infected C57BL/6J mice, FIG. 8A, p<0.05): significantly lower fungal burdens in the lung"
CO[C@H]1C[C@@H]2CC[C@@H](C)[C@@](O)(O2)C(=O)C(=O)N2CCCC[C@H]2C(=O)O[C@H]([C@H](C)C[C@@H]2CC[C@@H](OC(=O)C(C)(CO)CO)[C@H](OC)C2)CC(=O)[C@H](C)/C=C(\C)[C@@H](O)[C@@H](OC)C(=O)[C@H](C)C[C@H](C)/C=C/C=C/C=C/1C [Temsirolimus],59.2,> 100,,6.25,6.25,6.25,6.25,partially inhibit germination,Neither temsirolimus nor disulfiram were germicidal,1.56,1.56,21.3,
